Experimental data reported in patent US11247990B1, “Bicyclic fused pyridine compounds as inhibitors of TAM kinases” (ARRAY BIOPHARMA INC., priority 2017, dated 2022).

Assays:
Settings in all cases: averaged IC50
[1] = biological target: His-tagged recombinant human AXL cytoplasmic domain (Homo sapiens (Human), UniProt P30530); assay: AXL Enzyme Assay (LanthaScreen Eu Kinase Binding, TR-FRET)
Outline: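 Compound displacement measured by TR-FRET after 60 min at 22 °C, using Eu-based LanthaScreen binding technology. Ratiometric emission converted to percent of control, fitted to a 4-parameter logistic curve, with IC50 at 50 POC.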

[2] = biological target: His-tagged recombinant human MER cytoplasmic domain (Homo sapiens (Human), UniProt Q12866); assay: MER Enzyme Assay (LanthaScreen Eu Kinase Binding, TR-FRET)
Outline: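 Percent of control, derived from ratiometric TR-FRET emission, was fitted to a 4-parameter logistic curve and IC50 taken at 50 POC. Binding was read after 60 min at 22 °C using Eu-based LanthaScreen technology and recombinant His-tagged MER cytoplasmic domain.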

[3] = biological target: GST-tagged recombinant human TYRO3 kinase domain (Homo sapiens (Human), UniProt Q06418); assay: TYRO3 Enzyme Assay (LanthaScreen Eu Kinase Binding, TR-FRET)
Outline: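 LanthaScreen Eu binding (tracer displacement) format read by TR-FRET after 60 min at 22 °C. Emission ratio converted to percent of control; IC50 taken where a 4-parameter logistic fit crosses 50 POC.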

Sequence of His-tagged recombinant human AXL cytoplasmic domain (P30530 473-894): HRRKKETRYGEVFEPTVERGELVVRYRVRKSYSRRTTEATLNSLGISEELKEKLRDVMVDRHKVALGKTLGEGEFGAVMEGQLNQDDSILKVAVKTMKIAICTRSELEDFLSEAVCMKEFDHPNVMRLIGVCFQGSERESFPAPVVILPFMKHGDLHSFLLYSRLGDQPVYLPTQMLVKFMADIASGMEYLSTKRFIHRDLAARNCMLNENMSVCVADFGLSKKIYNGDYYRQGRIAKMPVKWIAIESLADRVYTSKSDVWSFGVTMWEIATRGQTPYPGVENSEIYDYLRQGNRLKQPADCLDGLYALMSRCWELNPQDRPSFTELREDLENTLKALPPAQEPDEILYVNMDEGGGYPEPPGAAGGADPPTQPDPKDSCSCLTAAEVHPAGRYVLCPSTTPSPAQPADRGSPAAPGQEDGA
Sequence of His-tagged recombinant human MER cytoplasmic domain (Q12866 527-999): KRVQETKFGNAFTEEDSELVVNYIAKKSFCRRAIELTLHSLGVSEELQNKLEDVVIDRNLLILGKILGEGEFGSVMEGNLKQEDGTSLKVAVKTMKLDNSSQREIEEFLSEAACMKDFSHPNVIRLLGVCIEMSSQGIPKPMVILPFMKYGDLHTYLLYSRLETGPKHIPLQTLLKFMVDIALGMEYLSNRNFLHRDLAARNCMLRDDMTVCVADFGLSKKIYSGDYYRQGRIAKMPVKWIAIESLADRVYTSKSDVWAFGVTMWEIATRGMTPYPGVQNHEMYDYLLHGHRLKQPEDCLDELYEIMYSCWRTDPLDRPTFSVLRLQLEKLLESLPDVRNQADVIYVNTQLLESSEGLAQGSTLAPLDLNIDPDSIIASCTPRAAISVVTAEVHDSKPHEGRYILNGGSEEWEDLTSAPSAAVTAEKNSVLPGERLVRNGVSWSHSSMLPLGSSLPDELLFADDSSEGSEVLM
Sequence of GST-tagged recombinant human TYRO3 kinase domain (Q06418 518-790): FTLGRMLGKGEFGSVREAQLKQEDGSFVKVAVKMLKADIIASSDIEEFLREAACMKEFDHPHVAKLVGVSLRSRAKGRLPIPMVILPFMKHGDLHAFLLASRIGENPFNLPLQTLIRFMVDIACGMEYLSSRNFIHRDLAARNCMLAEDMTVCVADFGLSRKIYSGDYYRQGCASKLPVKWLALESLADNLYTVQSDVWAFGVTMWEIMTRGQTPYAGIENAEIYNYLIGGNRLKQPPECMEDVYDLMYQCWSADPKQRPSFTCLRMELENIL

| Structure (SMILES) | IC50 [1] | IC50 [2] | IC50 [3] |
| --- | --- | --- | --- |
| CCNc1cc2c(cn1)c(C1CCN(C3CCN(C)CC3)CC1)nn2[C@H]1CC[C@@H](Oc2nccc(C(F)(F)F)c2F)CC1 [Example 328, N-ethyl-1-((1s,4s)-4-((3-fluoro-4-(trifluoromethyl)pyridin-2-yl)oxy)cyclohexyl)-3-(1′-methyl-[1,4′-bipiperidin]-4-yl)-1H-pyrazolo[4,3-c]pyridin-6-amine] | < 10 nM | < 10 nM | < 10 nM |
| CCNc1cc2c(cn1)c(-c1cnn(CC(C)(O)CO)c1)nn2[C@H]1CC[C@@H](Oc2nccc(C(F)(F)F)c2F)CC1 (stereo partly drawn) [Example 238, 3-(4-(6-(ethylamino)-1-((1s,4s)-4-((3-fluoro-4-(trifluoromethyl)pyridin-2-yl)oxy)cyclohexyl)-1H-pyrazolo[4,3-c]pyridin-3-yl)-1H-pyrazol-1-yl)-2-methylpropane-1,2-diol] | < 10 nM | < 10 nM | 10 to 100 nM |
| CNc1cc2c(cn1)c(-c1cnn(C)c1)nn2[C@H]1CC[C@@H](Oc2ccccc2S(C)(=O)=O)CC1 [Example 375, N-methyl-3-(1-methyl-1H-pyrazol-4-yl)-1-((1s,4s)-4-(2-(methylsulfonyl)phenoxy)cyclohexyl)-1H-pyrazolo[4,3-c]pyridin-6-amine] | < 10 nM | < 10 nM | 10 to 100 nM |
| CCNc1cc2c(cn1)c(N1CC[C@H](N(C)C)C1)nn2[C@H]1CC[C@@H](Oc2nccc(C(F)(F)F)c2F)CC1 [Example 335, 3-((S)-3-(dimethylamino)pyrrolidin-1-yl)-N-ethyl-1-((1s,4R)-4-((3-fluoro-4-(trifluoromethyl)pyridin-2-yl)oxy)cyclohexyl)-1H-pyrazolo[4,3-c]pyridin-6-amine] | < 10 nM | < 10 nM | 10 to 100 nM |
| CCNc1cc2c(cn1)c(-c1cnn(CC(=O)NC)c1)nn2[C@H]1CC[C@@H](Oc2nccc(C(F)(F)F)c2F)CC1 [Example 258, 2-(4-(6-(ethylamino)-1-((1s,4s)-4-((3-fluoro-4-(trifluoromethyl)pyridin-2-yl)oxy)cyclohexyl)-1H-pyrazolo[4,3-c]pyridin-3-yl)-1H-pyrazol-1-yl)-N-methylacetamide] | < 10 nM | < 10 nM | < 10 nM |
| CCNc1cc2c(cn1)c(-c1cnn(C(C)(C)C#N)c1)nn2[C@H]1CC[C@@H](Oc2cn(C)nc2C(F)(F)F)CC1 [Example 280, 2-(4-(6-(ethylamino)-1-((1s,4s)-4-((1-methyl-3-(trifluoromethyl)-1H-pyrazol-4-yl)oxy)cyclohexyl)-1H-pyrazolo[4,3-c]pyridin-3-yl)-1H-pyrazol-1-yl)-2-methylpropanenitrile] | < 10 nM | < 10 nM | < 10 nM |
| CCNc1cc2c(cn1)c(-c1cnn(C)c1)nn2[C@H]1CC[C@@H](Oc2nccc(C(F)(F)F)c2N(C)C)CC1 [Example 350, 1-((1s,4s)-4-((3-(dimethylamino)-4-(trifluoromethyl)pyridin-2-yl)oxy)cyclohexyl)-N-ethyl-3-(1-methyl-1H-pyrazol-4-yl)-1H-pyrazolo[4,3-c]pyridin-6-amine] | < 10 nM | < 10 nM | 10 to 100 nM |
| CCNc1cc2c(cn1)c(C1CCN(CCOC)CC1)nn2[C@H]1CC[C@@H](Oc2nccc(C(F)(F)F)c2F)CC1 [Example 327, N-ethyl-1-((1s,4s)-4-((3-fluoro-4-(trifluoromethyl)pyridin-2-yl)oxy)cyclohexyl)-3-(1-(2-methoxyethyl)piperidin-4-yl)-1H-pyrazolo[4,3-c]pyridin-6-amine] | < 10 nM | < 10 nM | 10 to 100 nM |
| CNc1cc2c(cn1)c(-c1cnn(C)c1)nn2[C@H]1CC[C@@H](Oc2cccc3ncccc23)CC1 [Example 377, N-methyl-3-(1-methyl-1H-pyrazol-4-yl)-1-((1s,4s)-4-(quinolin-5-yloxy)cyclohexyl)-1H-pyrazolo[4,3-c]pyridin-6-amine] | < 10 nM | < 10 nM | < 10 nM |
| CNc1cc2c(cn1)c(-c1ccc3c(c1)CN(C)C3=O)nn2[C@H]1CC[C@@H](Oc2cn(C)nc2C(F)(F)F)CC1 [Example 286, 2-methyl-5-(1-((1s,4s)-4-((1-methyl-3-(trifluoromethyl)-1H-pyrazol-4-yl)oxy)cyclohexyl)-6-(methylamino)-1H-pyrazolo[4,3-c]pyridin-3-yl)isoindolin-1-one] | < 10 nM | < 10 nM | < 10 nM |
| CCNc1cc2c(cn1)c(N1CC[C@H](N)C1)nn2[C@H]1CC[C@@H](Oc2nccc(C(F)(F)F)c2F)CC1 [Example 493, 3-((S)-3-aminopyrrolidin-1-yl)-N-ethyl-1-((1s,4R)-4-((3-fluoro-4-(trifluoromethyl)pyridin-2-yl)oxy)cyclohexyl)-1H-pyrazolo[4,3-c]pyridin-6-amine] | < 10 nM | < 10 nM | 10 to 100 nM |
| CCNc1cc2c(cn1)c(-c1ccc(CN3CCN(C)CC3)cc1)nn2[C@H]1CC[C@@H](Oc2cnn(C)c2C(F)(F)F)CC1 [Example 293, N-ethyl-1-((1s,4s)-4-((1-methyl-5-(trifluoromethyl)-1H-pyrazol-4-yl)oxy)cyclohexyl)-3-(4-((4-methylpiperazin-1-yl)methyl)phenyl)-1H-pyrazolo[4,3-c]pyridin-6-amine] | < 10 nM | < 10 nM | 10 to 100 nM |
| CCNc1cc2c(cn1)c(-c1cnn(C)c1)nn2[C@H]1CC[C@@H](Oc2cccnc2C(F)(F)F)CC1 [Example 184, N-ethyl-3-(1-methyl-1H-pyrazol-4-yl)-1-((1s,4s)-4-((2-(trifluoromethyl)pyridin-3-yl)oxy)cyclohexyl)-1H-pyrazolo[4,3-c]pyridin-6-amine] | < 10 nM | < 10 nM | < 10 nM |
| CCNc1cc2c(cn1)c(N1CCN(C)CC1)nn2[C@H]1CC[C@@H](Oc2nccc(C(F)(F)F)c2F)CC1 [Example 331, N-ethyl-1-((1s,4s)-4((3-fluoro-4-(trifluoromethyl)pyridin-2-yl)oxy)cyclohexyl)-3-(4-methylpiperazin-1-yl)-1H-pyrazolo[4,3-c]pyridin-6-amine] | < 10 nM | < 10 nM | < 10 nM |
| CNc1cc2c(cn1)c(-c1cnn(C(C)(C)C#N)c1)nn2[C@H]1CC[C@@H](Oc2cccnc2C(F)(F)F)CC1 [Example 160, 2-methyl-2-(4-(6-(methylamino)-1-((1s,4s)-4-((2-(trifluoromethyl)pyridin-3-yl)oxy)cyclohexyl)-1H-pyrazolo[4,3-c]pyridin-3-yl)-1H-pyrazol-1-yl)propanenitrile] | < 10 nM | < 10 nM | < 10 nM |
| CNc1cc2c(cn1)c(-c1cnn(C(C)(C)C#N)c1)nn2[C@H]1CC[C@@H](Oc2cn(C)nc2C(F)(F)F)CC1 [Example 163, 2-methyl-2-(4-(1-((1s,4s)-4-((1-methyl-3-(trifluoromethyl)-1H-pyrazol-4-yl)oxy)cyclohexyl)-6-(methylamino)-lH-pyrazolo[4,3-c]pyridin-3-yl)-1H-pyrazol-1-yl)propanenitrile] | < 10 nM | < 10 nM | < 10 nM |
| CNc1cc2c(cn1)c(-c1cnn(C[C@H](N)CO)c1)nn2[C@H]1CC[C@@H](Oc2ccccc2F)CC1 [Example 433, (S)-2-amino-3-(4-(1-((1s,4S)-4-(2-fluorophenoxy)cyclohexyl)-6-(methylamino)-1H-pyrazolo[4,3-c]pyridin-3-yl)-1H-pyrazol-1-yl)propan-1-ol] | < 10 nM | < 10 nM | < 10 nM |
| CCNc1cc2c(cn1)c(-c1cnn(C)c1)nn2[C@H]1CC[C@@H](Oc2cccc(C(F)(F)F)c2F)CC1 [Example 498, N-ethyl-1-((1s,4s)-4-(2-fluoro-3-(trifluoromethyl)phenoxy)cyclohexyl)-3-(1-methyl-1H-pyrazol-4-yl)-1H-pyrazolo[4,3-c]pyridin-6-amine] | < 10 nM | < 10 nM | 10 to 100 nM |
| CCNc1cc2c(cn1)c(-c1cnn(C)c1)nn2[C@H]1CC[C@@H](Oc2nccnc2C(F)(F)F)CC1 [Example 194, N-ethyl-3-(1-methyl-1H-pyrazol-4-yl)-1-((1s,4s)-4-((3-(trifluoromethyl)pyrazin-2-yl)oxy)cyclohexyl)-1H-pyrazolo[4,3-c]pyridin-6-amine] | < 10 nM | < 10 nM | < 10 nM |
| CNc1cc2c(cn1)c(-c1cnn(C)c1)nn2[C@H]1CC[C@@H](Oc2cccnc2C#N)CC1 [Example 140, 3-(((1s,4s)-4-(3-(1-methyl-1H-pyrazol-4-yl)-6-(methylamino)-1H-pyrazolo[4,3-c]pyridin-1-yl)cyclohexyl)oxy)picolinonitrile] | < 10 nM | < 10 nM | < 10 nM |
| CCNc1cc2c(cn1)c(-c1cnn(C[C@@H](O)C(C)(C)O)c1)nn2[C@H]1CC[C@@H](Oc2nccc(C(F)(F)F)c2F)CC1 [Example 237, (R)-1-(4-(6-(ethylamino)-1-((1s,4R)-4-((3-fluoro-4-(trifluoromethyl)pyridin-2-yl)oxy)cyclohexyl)-1H-pyrazolo[4,3-c]pyridin-3-yl)-1H-pyrazol-1-yl)-3-methylbutane-2,3-diol] | < 10 nM | < 10 nM | 10 to 100 nM |
| C#Cc1ncccc1OC1CCC(n2nc(-c3cnn(C)c3)c3cnc(NCC)cc32)CC1 (stereo not drawn) [Example 199, N-ethyl-1-((1s,4s)-4-((2-ethynylpyridin-3-yl)oxy)cyclohexyl)-3-(1-methyl-1H-pyrazol-4-yl)-1H-pyrazolo[4,3-c]pyridin-6-amine] | < 10 nM | < 10 nM | < 10 nM |
